Assay results: patent publication US20210401931A1, “METHODS AND MATERIALS FOR TREATING CANCER” (Mayo Foundation for Medical Education and Research, priority 2018, published 2021)
Ends that are not written are not given here.

Assays:
[1] = test system: NF-κB site of the PD-L1 promoter; test: EMSA with biotin-labeled PD-L1-prom oligonucleotide and PC-3 nuclear extracts; assay type: cell-based, human; conditions: PC-3 cells expressing peptide
Description: FIGS. 11A-H. (A) Heatmap showing differentially expressed genes (FDR<0.01) between palbociclib treatment versus DMSO and knockdown RB1 versus control. Gene expression values (FPKM) were Z-score normalized. FPKM, Fragments Per Kilobase of transcript per Million mapped reads. (B) UCSC Genome Browser screenshots of meta-analysis of published RB ChIP high throughput sequencing (ChIP-seq) data showing RB binding to CD274 (PD-L1) gene locus in K562 cells. PD-L1-prom oligonucleotide DNA containing NF-κB binding sequence was shown in the RB binding peak in the PD-L1 gene, the corresponding mutant PD-L1-prom oligonucleotide DNA was shown below. FIG. 11B discloses SEQ ID NOS 279-280, respectively, in order of appearance. (C) ChIP-qPCR analysis of RB binds at the PD-L1 promotor in PC-3 cells. All data were shown as mean values±SD (n=3). *** P<0.001. (D) ChIP-reChIP analysis examining the co-localization of p65 and RB in the PD-L1 promoters. All data were shown as mean values±SD (n=3). ** P<0.01. […]
FIGS. 21A-N. Effect of RB depletion, cell cycle, and RB-N S249/T252 phospho-mimicking peptide on PD-L1 expression in cell lines of various cancer types. […] 48 hours after infection, PD-L1 expression was determined by western blotting (A), RT-qPCR (B), and FACS (C). […] (D) Pd-l1 protein and mRNA levels were determined by western blotting in primary SKO and DKO mouse prostate tumor cell lines. […]

PD-L1 = PD-L1 expression in cell lines of other cancer types (PANC-1, H1299, SK-Hep1) expressing RL peptide; assay type: cell-based, human; conditions: listed as RL-S249/T252D peptide
Experimental: FIGS. 12A-C. (A, B) PANC-1, H1299, and SK-Hep1 were infected with lentivirus expressing control or RB-specific shRNAs following puromycin selection. 48 hours post infection, cells were transfected with indicated construct. 24 hours after transfection, cells were harvested for western blotting (A) and RT-qPCR (B). All data were shown as mean values±SD (n=3). “ns”=not significant, *** P<0.001. (C) Western blot analysis of expression of PD-L1, RB, pRB-S249/T252, pRB-5795, and ERK2 in prostate cancer cell lines indicated.
Total RNA was isolated using TRIzol reagent (Thermo Fisher Scientific). The NanoDrop 2000 spectrophotometer (Thermo Fisher Scientific) was used to assess RNA yield and quality. RNA was reversely transcribed using Superscript reverse transcriptase (Thermo Fisher Scientific) following manufacturer's instructions. Quantitative real-time PCR was performed by mixing cDNA, gene-specific primers, and IQ SYRB Green Supermix and detected by iCycler QTX detection system (Bio-Rad). The 2-ΔCt method was used to quantitate fold changes by normalizing to GAPDH. Primers for RT-qPCR are provided Table 4.
Cells were harvested and lysed by IP buffer, and the supernatant was quantified by BCA protein quantification assay. Equal amounts of protein sample were added into 4× sample buffer and boiled for 5 minutes. […]

With “RL-S249D/T252D: S249/T252 phospho-mimicking R-Linker (RL) peptide: fragment of RB-N containing 21 amino acids surrounding S249/T252, expressed SFB-tagged or by lentivirus (NGDPRDPRRGQNRSARIAKQL; also: expressed SFB-tagged (tag left off))” the “p65 binding to the cognate DNA in the PD-L1 promoter” value [1] was “inhibition” and the “PD-L1 expression in cell lines of other cancer types” value (PD-L1) was “inhibited”.
